{"source": "patent US20240285634A1", "about": "“COMPOUND AND METHOD FOR TREATING CHEMOTHERAPY-ASSOCIATED GASTROINTESTINAL SIDE EFFECTS” (ONQUALITY PHARMACEUTICALS CHINA LTD., priority 2021, published 2024)", "key": {"[1]": {"system": "Chemotherapeutic agent-caused diarrhea models of Balb/c mice", "assay": "Relieving effect on diarrhea caused by a chemotherapeutic agent (Examples 1-201)", "format": "in vivo", "text": "Construction of mouse animal models: Chemotherapeutic agent-caused diarrhea models of Balb/c mice were constructed according to the administration mode and frequency of the chemotherapeutic agent as shown in Table 3. After administration for several days, mice developed different extents of diarrhea symptoms (as shown in FIG. 1), which were similar to the conditions in human. Thus, chemotherapeutic agent-caused diarrhea models of mice are very good models to mimic diarrhea in human caused by the chemotherapeutic agent.\nBalb/c mice were fed for 1 week, and then divided into groups. The experiment was divided into a control group, a chemotherapeutic agent group, and a group of the compound as shown in Formula I, each of which comprised 10 mice, to perform the administration experiment, for which the administration dosage, mode, time and frequency were shown in Table 3. The control group: being injected or intragastrically administered with the same solvent as that used in the group of the compound as shown in Formula I (the injection mode and time were shown in Table 3), and then being injected or intragastrically administered with the same solvent as that used in the chemotherapeutic agent group (the administration mode was shown in Table 3); the chemotherapeutic agent group: being injected or intragastrically administered with the same solvent as that used in the group of the compound as shown in Formula I (the administration mode and time were shown in Table 3), and then being injected or intragastrically administered with the chemotherapeutic agent (the type, administration mode and dosage were shown in Table 3); the group of the compound as shown in Formula I: being injected or intragastrically administered with the compound as shown in Formula I (the administration mode and time were shown in Table 3), and then being administered with the chemotherapeutic agent (the administration mode and dosage were shown in Table 3).\nThe scoring of diarrhea can refer to the method of Akinobu Kurita (Cancer Chemother Pharmacol 2000; 46:211-20.), Grade 0: normal feces; Grade 1: mild diarrhea, the stools is slightly wet and soft; Grade 2: moderate diarrhea, loose stools and mild perianal contamination; Grade 3: severe diarrhea, watery stools and accompanied by severe perianal staining (see FIG. 1). It is regarded as effective remission when the diarrhea grading of mice in the group of the compound as shown in Formula I is reduced compared with the average diarrhea grading of mice in the chemotherapeutic agent group.\nThe diarrhea grading of mice was observed and recorded every day. At the end of the experiment, the number of mice in the group of the compound as shown in Formula I whose diarrhea grading was lower than that of mice in the chemotherapeutic agent group was recorded. Table 3 lists various animal experiment combinations of chemotherapeutic agents and the compound as shown in Formula I, as well as the corresponding experimental results. (Relative remission rate %=the number of mice in the group of the compound as shown in Formula I whose diarrhea has been effectively relieved/the total number of mice in the group of the compound as shown in Formula I*100%. The establishment rate of diarrhea model in the chemotherapeutic agent group was 50%-70%, that is, about 5-7 of 10 mice developed diarrhea during the experiment, and there were cases of individual mice death or not developing diarrhea.)"}, "[2]": {"system": "Balb/c mice, constipation caused by continuous administration of a chemotherapeutic agent", "assay": "Relieving effect on constipation caused by the continuous administration of a chemotherapeutic agent (Examples 385-405)", "format": "in vivo", "text": "Balb/c mice were fed for 1 week, and then divided into groups. The experiment was divided into a control group, a chemotherapeutic agent group, and a group of the compound as shown in Formula I, each of which comprised 10 mice, to perform the administration experiment, for which the administration dosage, mode, time and frequency were shown in Table 6. The control group: being injected or intragastrically administered with the same solvent as that used in the group of the compound as shown in Formula I (the administration mode and time were shown in Table 6), and then being injected or intragastrically administered with the same solvent as that used in the group of the compound as shown in Formula I (the administration mode was shown in Table 6); the chemotherapeutic agent group: being injected or intragastrically administered with the same solvent as that used in the group of the compound as shown in Formula I (the administration mode and time were shown in Table 6), and then being injected or intragastrically administered with the chemotherapeutic agent (the type, administration mode, time and dosage were shown in Table 6); the group of the compound as shown in Formula I: being injected or intragastrically administered with the compound as shown in Formula I (the administration mode and time were shown in Table 6), and then being administered with the chemotherapeutic agent (the type, administration mode, time and dosage were shown in Table 6).\nThe feces reduction rate was calculated with reference to the method of Ji Eun Kim (Lab Anim Res. 2016 December; 32(4): 231-240.). Feces reduction rate (%)=(the control group−the chemotherapeutic agent group or the group of the compound as shown in Formula I)/the control group*100%\nIt is regarded as effective remission when the feces reduction rate of mice in the group of the compound as shown in Formula I is reduced compared with that in the chemotherapeutic agent group.\nThe feces amount of mice within 3 hours was observed and recorded every day. At the end of the experiment, the number of mice in the group of the compound as shown in Formula I whose feces reduction rate was lower than that of mice in the chemotherapeutic agent group was recorded. Table 6 lists various animal experiment combinations of chemotherapeutic agents and the compound as shown in Formula I, as well as the corresponding experimental results."}}, "data": [{"smiles": "CN1CCN(c2ccc(Nc3ncc4cc5n(c4n3)C3(CCCCC3)CNC5=O)nc2)CC1", "note": "[Compound I, Trilaciclib]", "values": [{"measurement": "Relative remission rate", "setting": "[1]; Ex 166, Fluorouracil 50 + oxaliplatin 5 + irinotecan 50 + tetrahydrofolic acid 90 mg/kg intraperitoneal single, compound 150 mg/kg oral single 12 h before, cycle 7 days", "result": 40, "unit": "%"}, {"measurement": "Relative remission rate", "setting": "[1]; Ex 167, Fluorouracil 50 + oxaliplatin 5 + irinotecan 50 + tetrahydrofolic acid 90 mg/kg intraperitoneal single, compound 150 mg/kg oral single 24 h before, cycle 7 days", "result": 20, "unit": "%"}, {"measurement": "Relative remission rate", "setting": "[1]; Ex 168, Fluorouracil 50 + oxaliplatin 5 + irinotecan 50 + tetrahydrofolic acid 90 mg/kg intraperitoneal single, compound 150 mg/kg oral single 0.5 h before, cycle 7 days", "result": 40, "unit": "%"}, {"measurement": "Relative remission rate", "setting": "[1]; Ex 169, Fluorouracil 50 + oxaliplatin 5 + irinotecan 50 + tetrahydrofolic acid 90 mg/kg intraperitoneal single, compound 150 mg/kg oral single 4 h before, cycle 7 days", "result": 60, "unit": "%"}, {"measurement": "Relative remission rate", "setting": "[1]; Ex 170, Fluorouracil 50 + oxaliplatin 5 + irinotecan 50 + tetrahydrofolic acid 90 mg/kg intraperitoneal single, compound 150 mg/kg oral single 8 h before, cycle 7 days", "result": 80, "unit": "%"}, {"measurement": "Relative remission rate", "setting": "[1]; Ex 171, Fluorouracil 50 + oxaliplatin 5 + irinotecan 50 + tetrahydrofolic acid 90 mg/kg intraperitoneal single, compound 150 mg/kg oral single 12 h before, cycle 7 days", "result": 40, "unit": "%"}, {"measurement": "Relative remission rate", "setting": "[1]; Ex 172, Fluorouracil 50 + oxaliplatin 5 + irinotecan 50 + tetrahydrofolic acid 90 mg/kg intraperitoneal single, compound 150 mg/kg oral single 24 h before, cycle 7 days", "result": 20, "unit": "%"}, {"measurement": "Relative remission rate", "setting": "[1]; Ex 190, Fluorouracil 100 + oxaliplatin 10 + irinotecan 200 + tetrahydrofolic acid 100 mg/kg oral single, compound 100 mg/kg subcutaneous single 1 h before, cycle 7 days", "result": 60, "unit": "%"}, {"measurement": "Relative remission rate", "setting": "[1]; Ex 191, Fluorouracil 100 + oxaliplatin 10 + irinotecan 200 + tetrahydrofolic acid 100 mg/kg oral single, compound 100 mg/kg subcutaneous single 2 h before, cycle 7 days", "result": 50, "unit": "%"}, {"measurement": "Relative remission rate", "setting": "[1]; Ex 192, Fluorouracil 100 + oxaliplatin 10 + irinotecan 200 + tetrahydrofolic acid 100 mg/kg oral single, compound 100 mg/kg subcutaneous single 4 h before, cycle 7 days", "result": 30, "unit": "%"}, {"measurement": "Relative remission rate", "setting": "[1]; Ex 193, Fluorouracil 100 + oxaliplatin 10 + irinotecan 200 + tetrahydrofolic acid 100 mg/kg oral single, compound 100 mg/kg subcutaneous single 6 h before, cycle 7 days", "result": 30, "unit": "%"}, {"measurement": "Relative remission rate", "setting": "[1]; Ex 196, Gemcitabine (GEM) 120 mg/kg intraperitoneal single, compound 100 mg/kg oral single 12 h before, cycle 8 days", "result": 50, "unit": "%"}, {"measurement": "diarrhea gradings compared with the chemotherapeutic agent group", "setting": "[1]; administered before the chemotherapeutic agent, Table 3 and FIG. 2", "result": "relieved to different degrees"}, {"measurement": "Relative remission rate (%)", "setting": "[2]; Example 385, Fluorouracil (5-Fu) 100 mg/kg intraperitoneal injection once a day for 3 days, compound 100 mg/kg intravenous injection once a day for 3 days, 0.5 h before the chemotherapeutic agent, experimental cycle 7 days", "result": 70, "unit": "%"}, {"measurement": "Relative remission rate (%)", "setting": "[2]; Example 386, Fluorouracil (5-Fu) 100 mg/kg intraperitoneal injection once a day for 3 days, compound 100 mg/kg intravenous injection once a day for 3 days, 4 h before the chemotherapeutic agent, experimental cycle 7 days", "result": 50, "unit": "%"}, {"measurement": "Relative remission rate (%)", "setting": "[2]; Example 387, Fluorouracil (5-Fu) 100 mg/kg intraperitoneal injection once a day for 3 days, compound 100 mg/kg intravenous injection once a day for 3 days, 6 h before the chemotherapeutic agent, experimental cycle 7 days", "result": 40, "unit": "%"}, {"measurement": "Relative remission rate (%)", "setting": "[2]; Example 388, Fluorouracil (5-Fu) 100 mg/kg intraperitoneal injection once a day for 3 days, compound 100 mg/kg intravenous injection once a day for 3 days, 8 h before the chemotherapeutic agent, experimental cycle 7 days", "result": 30, "unit": "%"}, {"measurement": "Relative remission rate (%)", "setting": "[2]; Example 389, Fluorouracil (5-Fu) 100 mg/kg intraperitoneal injection once a day for 5 days, compound 100 mg/kg intraperitoneal injection once a day for 5 days, 0.5 h before the chemotherapeutic agent, experimental cycle 9 days", "result": 60, "unit": "%"}, {"measurement": "Relative remission rate (%)", "setting": "[2]; Example 390, Fluorouracil (5-Fu) 100 mg/kg intraperitoneal injection once a day for 5 days, compound 100 mg/kg intraperitoneal injection once a day for 5 days, 12 h before the chemotherapeutic agent, experimental cycle 9 days", "result": 30, "unit": "%"}, {"measurement": "Relative remission rate (%)", "setting": "[2]; Example 391, Fluorouracil (5-Fu) 100 mg/kg intraperitoneal injection once a day for 5 days, compound 100 mg/kg intraperitoneal injection once a day for 5 days, 20 h before the chemotherapeutic agent, experimental cycle 9 days", "result": 10, "unit": "%"}, {"measurement": "Relative remission rate (%)", "setting": "[2]; Example 392, Fluorouracil (5-Fu) 100 mg/kg intraperitoneal injection once a day for 5 days, compound 100 mg/kg intraperitoneal injection once a day for 5 days, 24 h before the chemotherapeutic agent, experimental cycle 9 days", "result": 10, "unit": "%"}, {"measurement": "Relative remission rate (%)", "setting": "[2]; Example 396, Fluorouracil (5-Fu) 100 mg/kg intravenous injection once a day for 3 days, compound 100 mg/kg oral administration once a day for 3 days, 4 h before the chemotherapeutic agent, experimental cycle 7 days", "result": 40, "unit": "%"}, {"measurement": "Relative remission rate (%)", "setting": "[2]; Example 402, Fluorouracil (5-Fu) 100 mg/kg intraperitoneal injection once a day for 7 days, compound 125 mg/kg intraperitoneal injection once a day for 7 days, 2 h before the chemotherapeutic agent, experimental cycle 10 days", "result": 10, "unit": "%"}, {"measurement": "Relative remission rate (%)", "setting": "[2]; Example 403, Fluorouracil (5-Fu) 100 mg/kg intraperitoneal injection once a day for 7 days, compound 125 mg/kg intraperitoneal injection once a day for 7 days, 4 h before the chemotherapeutic agent, experimental cycle 10 days", "result": 10, "unit": "%"}, {"measurement": "Relative remission rate (%)", "setting": "[2]; Example 404, Fluorouracil (5-Fu) 100 mg/kg intraperitoneal injection once a day for 7 days, compound 125 mg/kg intraperitoneal injection once a day for 7 days, 6 h before the chemotherapeutic agent, experimental cycle 10 days", "result": 10, "unit": "%"}, {"measurement": "Relative remission rate (%)", "setting": "[2]; Example 405, Fluorouracil (5-Fu) 100 mg/kg intraperitoneal injection once a day for 7 days, compound 125 mg/kg intraperitoneal injection once a day for 7 days, 8 h before the chemotherapeutic agent, experimental cycle 10 days", "result": 0, "unit": "%"}, {"measurement": "relieving effects on constipation", "setting": "[2]; continuous administration of fluorouracil for less than 7 days", "result": "significant relieving effects"}, {"measurement": "relieving effects on constipation", "setting": "[2]; continuous administration of the chemotherapeutic agent for 7 days or less", "result": "have relieving effects"}]}]}
